{"source": "patent US10414808B2", "about": "(priority 2012, dated 2019)", "key": {"[1]": {"test_system": "rat model of nociceptive pain", "conditions": "in vivo"}, "[2]": {"test_system": "rat model of monoarthritis induced by 50% intraplantar CFA", "conditions": "in vivo"}, "[3]": {"test_system": "mouse model of inflammatory pain (100% CFA)", "conditions": "in vivo"}, "[4]": {"test_system": "mouse spared nerve injury model of neuropathic pain", "conditions": "in vivo"}, "[5]": {"conditions": "mouse, in vivo"}, "mice": {"test_system": "mice", "conditions": "mouse, in vivo"}, "[6]": {"test_system": "mouse model of CFA-induced inflammatory pain", "conditions": "in vivo"}, "[7]": {"test_system": "rodent models of acute and inflammatory pain", "conditions": "in vivo; cited from earlier work"}, "in vivo": {"assay": "in vivo", "conditions": "mouse, sc"}, "hNav1.7 channel": {"biological_target": "hNav1.7 channel (Homo sapiens, UniProt Q15858, W1161R)", "format": "cell-based"}, "Nav1.7": {"biological_target": "Nav1.7 (Homo sapiens, UniProt Q15858, W1161R)", "sequence (Q15858 whole entry W1161R, looked up)": "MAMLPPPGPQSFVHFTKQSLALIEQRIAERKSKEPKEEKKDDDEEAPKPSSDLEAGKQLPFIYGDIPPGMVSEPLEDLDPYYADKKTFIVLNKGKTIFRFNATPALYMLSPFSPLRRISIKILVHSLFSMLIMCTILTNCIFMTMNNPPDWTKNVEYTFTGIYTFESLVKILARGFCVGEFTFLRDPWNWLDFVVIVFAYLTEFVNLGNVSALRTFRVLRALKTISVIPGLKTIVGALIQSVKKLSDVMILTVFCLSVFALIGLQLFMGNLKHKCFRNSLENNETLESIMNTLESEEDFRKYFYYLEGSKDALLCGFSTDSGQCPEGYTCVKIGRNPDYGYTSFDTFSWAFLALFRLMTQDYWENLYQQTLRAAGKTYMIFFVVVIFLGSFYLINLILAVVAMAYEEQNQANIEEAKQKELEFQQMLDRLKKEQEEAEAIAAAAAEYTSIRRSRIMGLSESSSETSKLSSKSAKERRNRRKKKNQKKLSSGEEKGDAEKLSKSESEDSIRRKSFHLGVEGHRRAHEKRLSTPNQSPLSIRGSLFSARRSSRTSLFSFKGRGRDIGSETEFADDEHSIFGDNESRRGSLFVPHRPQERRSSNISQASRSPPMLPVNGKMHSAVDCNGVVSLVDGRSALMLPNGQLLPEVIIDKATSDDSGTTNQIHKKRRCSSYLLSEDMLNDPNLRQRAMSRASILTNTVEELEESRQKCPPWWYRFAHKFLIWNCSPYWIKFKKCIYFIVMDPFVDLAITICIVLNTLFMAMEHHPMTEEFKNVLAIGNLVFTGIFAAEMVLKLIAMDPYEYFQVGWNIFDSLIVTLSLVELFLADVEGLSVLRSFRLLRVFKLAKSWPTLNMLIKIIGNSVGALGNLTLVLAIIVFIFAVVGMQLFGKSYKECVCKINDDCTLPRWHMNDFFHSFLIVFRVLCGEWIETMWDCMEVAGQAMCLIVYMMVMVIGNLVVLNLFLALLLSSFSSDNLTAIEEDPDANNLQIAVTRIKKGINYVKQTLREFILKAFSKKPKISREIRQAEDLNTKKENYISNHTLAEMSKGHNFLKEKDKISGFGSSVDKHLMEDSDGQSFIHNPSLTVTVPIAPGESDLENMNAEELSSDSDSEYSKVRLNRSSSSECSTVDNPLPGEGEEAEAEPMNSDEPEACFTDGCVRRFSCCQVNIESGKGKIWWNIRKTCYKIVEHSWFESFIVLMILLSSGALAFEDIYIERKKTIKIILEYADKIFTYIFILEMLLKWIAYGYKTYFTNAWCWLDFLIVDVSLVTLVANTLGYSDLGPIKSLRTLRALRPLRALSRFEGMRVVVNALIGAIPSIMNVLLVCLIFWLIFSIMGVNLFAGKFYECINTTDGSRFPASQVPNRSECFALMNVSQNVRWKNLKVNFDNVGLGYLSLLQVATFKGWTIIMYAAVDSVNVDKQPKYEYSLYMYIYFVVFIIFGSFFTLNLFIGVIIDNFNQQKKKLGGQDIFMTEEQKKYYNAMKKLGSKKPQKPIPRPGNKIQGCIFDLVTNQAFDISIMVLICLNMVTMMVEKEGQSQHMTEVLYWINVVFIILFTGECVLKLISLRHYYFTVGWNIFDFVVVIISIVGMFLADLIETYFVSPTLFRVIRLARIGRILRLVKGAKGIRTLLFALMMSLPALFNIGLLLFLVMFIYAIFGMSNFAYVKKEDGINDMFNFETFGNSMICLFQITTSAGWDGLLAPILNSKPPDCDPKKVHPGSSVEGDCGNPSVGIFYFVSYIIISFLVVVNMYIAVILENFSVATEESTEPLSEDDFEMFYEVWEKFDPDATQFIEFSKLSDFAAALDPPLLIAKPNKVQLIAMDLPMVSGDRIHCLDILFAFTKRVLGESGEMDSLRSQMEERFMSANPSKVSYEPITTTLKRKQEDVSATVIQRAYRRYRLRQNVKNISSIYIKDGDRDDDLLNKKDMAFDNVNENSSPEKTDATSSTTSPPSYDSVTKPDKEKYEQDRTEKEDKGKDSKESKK", "assay": "cell-based"}, "Nav1.2": {"biological_target": "Nav1.2 (Homo sapiens, UniProt Q99250)", "sequence (Q99250 whole entry, looked up)": "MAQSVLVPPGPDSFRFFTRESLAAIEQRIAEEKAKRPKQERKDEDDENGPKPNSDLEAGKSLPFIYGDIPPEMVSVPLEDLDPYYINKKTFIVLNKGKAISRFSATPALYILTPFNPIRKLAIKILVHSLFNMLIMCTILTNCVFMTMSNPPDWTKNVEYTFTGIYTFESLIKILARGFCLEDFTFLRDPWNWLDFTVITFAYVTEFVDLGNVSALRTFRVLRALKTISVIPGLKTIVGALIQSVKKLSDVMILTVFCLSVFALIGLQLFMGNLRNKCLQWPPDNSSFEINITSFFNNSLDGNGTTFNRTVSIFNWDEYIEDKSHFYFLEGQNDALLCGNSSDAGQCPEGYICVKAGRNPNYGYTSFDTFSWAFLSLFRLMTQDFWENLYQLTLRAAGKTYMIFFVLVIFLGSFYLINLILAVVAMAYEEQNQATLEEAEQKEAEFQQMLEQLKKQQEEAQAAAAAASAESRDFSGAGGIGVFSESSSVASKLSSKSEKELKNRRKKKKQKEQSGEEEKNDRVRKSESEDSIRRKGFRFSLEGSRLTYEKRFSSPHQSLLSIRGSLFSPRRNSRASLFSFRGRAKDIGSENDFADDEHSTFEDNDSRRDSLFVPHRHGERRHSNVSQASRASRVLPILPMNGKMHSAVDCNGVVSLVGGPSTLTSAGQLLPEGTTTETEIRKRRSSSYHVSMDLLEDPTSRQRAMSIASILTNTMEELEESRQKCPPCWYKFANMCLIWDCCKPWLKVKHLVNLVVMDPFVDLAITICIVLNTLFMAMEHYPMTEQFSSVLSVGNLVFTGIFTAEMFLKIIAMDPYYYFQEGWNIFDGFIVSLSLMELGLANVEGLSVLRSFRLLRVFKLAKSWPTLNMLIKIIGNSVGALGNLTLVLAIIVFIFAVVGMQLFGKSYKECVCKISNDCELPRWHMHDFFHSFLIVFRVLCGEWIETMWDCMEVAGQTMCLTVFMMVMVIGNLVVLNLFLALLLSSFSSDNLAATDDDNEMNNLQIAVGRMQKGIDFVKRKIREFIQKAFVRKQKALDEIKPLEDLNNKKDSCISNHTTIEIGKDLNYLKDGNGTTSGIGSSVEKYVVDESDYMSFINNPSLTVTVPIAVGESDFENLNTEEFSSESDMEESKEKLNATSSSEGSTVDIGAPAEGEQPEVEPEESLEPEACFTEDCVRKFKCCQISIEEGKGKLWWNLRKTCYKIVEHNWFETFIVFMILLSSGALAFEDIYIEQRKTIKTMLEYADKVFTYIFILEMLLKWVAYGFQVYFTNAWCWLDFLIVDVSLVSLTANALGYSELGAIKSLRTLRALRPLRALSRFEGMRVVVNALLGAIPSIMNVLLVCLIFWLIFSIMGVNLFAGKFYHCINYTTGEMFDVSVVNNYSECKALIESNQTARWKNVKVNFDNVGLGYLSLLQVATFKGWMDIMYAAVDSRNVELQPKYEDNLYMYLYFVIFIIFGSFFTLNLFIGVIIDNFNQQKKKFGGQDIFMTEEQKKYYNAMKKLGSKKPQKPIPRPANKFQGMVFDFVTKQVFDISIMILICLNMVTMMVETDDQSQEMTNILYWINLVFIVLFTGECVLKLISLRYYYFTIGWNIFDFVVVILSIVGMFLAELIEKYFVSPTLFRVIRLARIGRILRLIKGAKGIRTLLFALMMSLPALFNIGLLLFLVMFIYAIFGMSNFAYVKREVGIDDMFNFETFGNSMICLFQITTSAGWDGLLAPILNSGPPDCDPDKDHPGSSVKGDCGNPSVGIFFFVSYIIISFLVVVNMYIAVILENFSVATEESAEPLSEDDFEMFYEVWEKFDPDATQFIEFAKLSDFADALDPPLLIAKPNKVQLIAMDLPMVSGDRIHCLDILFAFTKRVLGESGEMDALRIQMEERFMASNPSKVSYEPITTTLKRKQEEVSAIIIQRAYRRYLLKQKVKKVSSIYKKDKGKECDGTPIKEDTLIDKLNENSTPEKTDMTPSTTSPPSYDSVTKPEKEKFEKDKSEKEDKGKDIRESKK", "assay": "cell-based"}}, "note": "Where two headings read alike, the source gives them in different places.", "data": [{"smiles": "CSCC[C@@H]1NC(=O)CNC(=O)[C@H](CCC(=O)O)NC(=O)[C@@H]2CSSC[C@H](NC(=O)[C@@H](N)Cc3ccc(O)cc3)C(=O)N[C@@H](CCC(N)=O)C(=O)N[C@@H](CCCCN)C(=O)N[C@@H](Cc3c[nH]c4ccccc34)C(=O)N[C@@H](CCSC)C(=O)N[C@@H](Cc3c[nH]c4ccccc34)C(=O)N[C@@H]([C@@H](C)O)C(=O)N[C@H]3CSSC[C@H](NC(=O)[C@H](C(C)C)NC1=O)C(=O)N[C@@H](CCCNC(=N)N)C(=O)N[C@@H](CC(C)C)C(=O)N[C@@H](Cc1c[nH]c4ccccc14)C(=O)N[C@H](C(=O)N[C@@H](CCCCN)C(=O)N[C@@H](CCCCN)C(=O)N[C@@H](CCCCN)C(=O)N[C@@H](CC(C)C)C(=O)N[C@@H](Cc1c[nH]c4ccccc14)C(=O)O)CSSC[C@H](NC(=O)[C@H](CCCCN)NC(=O)[C@H](CCCNC(=N)N)NC(=O)[C@H](CCC(=O)O)NC(=O)[C@H](CO)NC(=O)[C@H](CC(=O)O)NC3=O)C(=O)N2", "note": "[ProTx-II]", "values": [{"measurement": "AUC of gram thresholds (mean vehicle AUC subtracted), comparison between dose groups", "setting": "[1]", "result": "significantly different except between the 0.3 and 3 nmole doses"}, {"measurement": "paw pressure threshold vs vehicle-treated animals", "setting": "[1]; sc", "result": "increased thresholds significantly"}, {"measurement": "paw pressure threshold, dose dependence", "setting": "[1]; sc", "result": "dose-dependent increase"}, {"measurement": "tactile threshold vs vehicle injected animals", "setting": "[2]", "result": "significantly increased"}, {"measurement": "CFA-induced tactile allodynia", "setting": "[3]", "result": "profound anti-allodynic effect"}, {"measurement": "efficacy in tactile (Von Frey) pain assay", "setting": "[4]", "result": "not efficacious"}, {"measurement": "Est Cp", "setting": "[5]", "result": "BLOQ"}, {"measurement": "Behav Obs", "setting": "mice", "result": "normal"}, {"measurement": "tolerability", "setting": "mice", "result": "well tolerated"}, {"measurement": "motor impairment", "setting": "[6]", "result": "did not produce any obvious motor impairment"}, {"measurement": "tactile threshold", "setting": "[6]", "result": "significantly increased"}, {"measurement": "thermal threshold", "setting": "[6]", "result": "significantly increased"}, {"measurement": "efficacy in rodent models of acute and inflammatory pain", "setting": "[7]", "result": "non-efficacious"}, {"measurement": "level at time molar at 48 h", "setting": "in vivo; 45.6 ug/day", "result": 50, "unit": "nM"}, {"measurement": "level at time molar at 120 h", "setting": "in vivo; 45.6 ug/day", "result": 55, "unit": "nM"}, {"measurement": "level at time molar at 168 h", "setting": "in vivo; 45.6 ug/day", "result": 83, "unit": "nM"}, {"measurement": "level at time molar at 72 h", "setting": "in vivo; 228 ug/day", "result": 224, "unit": "nM"}]}, {"smiles": "CC[C@H](C)[C@H](NC(=O)[C@H](CCC(N)=O)NC(=O)[C@H](Cc1ccc(O)cc1)NC(=O)[C@H](CCCCN)NC(=O)[C@@H]1CSSC[C@@H]2NC(=O)[C@H](CCC(N)=O)NC(=O)[C@H](CC(=O)O)NC(=O)[C@H](CC(N)=O)NC(=O)[C@H](CO)NC(=O)[C@@H]3CCCN3C(=O)[C@H](CC(N)=O)NC(=O)[C@@H]3CSSC[C@H](NC(=O)[C@H](C(C)C)NC(=O)[C@H](CC(C)C)NC(=O)[C@H](CCCCN)NC(=O)[C@H](CO)NC(=O)[C@H](CO)NC(=O)[C@H](CCCCN)NC(=O)[C@H](CSSC[C@H](NC(=O)[C@H](CCC(=O)O)NC(=O)[C@@H]4CCCN4C(=O)CN)C(=O)N[C@@H](CC(C)C)C(=O)N[C@@H](CCC(=O)O)C(=O)N[C@@H]([C@@H](C)CC)C(=O)N[C@@H](Cc4ccccc4)C(=O)N[C@@H](CCCCN)C(=O)N[C@@H](C)C(=O)N3)NC2=O)C(=O)N[C@@H](CO)C(=O)N[C@@H](CCCNC(=N)N)C(=O)N[C@@H](CCCCN)C(=O)N[C@@H]([C@@H](C)O)C(=O)N[C@@H](CCCNC(=N)N)C(=O)N[C@@H](Cc2c[nH]c3ccccc23)C(=O)N1)C(=O)NCC(=O)N[C@@H](CCCCN)C(=O)O", "note": "[Recombinant Huwentoxin-IV]", "values": [{"measurement": "ratio of IC50 for Nav1.2 to IC50 for Nav1.7", "setting": "hNav1.7 channel", "result": "about 2.143"}]}, {"smiles": "CC[C@H](C)[C@H](NC(=O)[C@H](CCC(N)=O)NC(=O)[C@H](Cc1ccc(O)cc1)NC(=O)[C@H](CCCCN)NC(=O)[C@@H]1CSSC[C@@H]2NC(=O)[C@H](CCC(N)=O)NC(=O)[C@H](CC(=O)O)NC(=O)[C@H](CC(N)=O)NC(=O)[C@H](CO)NC(=O)[C@@H]3CCCN3C(=O)[C@H](CC(N)=O)NC(=O)[C@@H]3CSSC[C@H](NC(=O)[C@H](C(C)C)NC(=O)[C@H](CC(C)C)NC(=O)[C@H](CCCCN)NC(=O)[C@H](CO)NC(=O)[C@H](CO)NC(=O)[C@H](CCCCN)NC(=O)[C@H](CSSC[C@H](NC(=O)[C@H](C)NC(=O)[C@@H]4CCCN4C(=O)CN)C(=O)N[C@@H](CC(C)C)C(=O)N[C@@H](CCC(=O)O)C(=O)N[C@@H]([C@@H](C)CC)C(=O)N[C@@H](Cc4ccccc4)C(=O)N[C@@H](CCCCN)C(=O)N[C@@H](C)C(=O)N3)NC2=O)C(=O)N[C@@H](CO)C(=O)N[C@@H](CCCNC(=N)N)C(=O)N[C@@H](CCCCN)C(=O)N[C@@H]([C@@H](C)O)C(=O)N[C@@H](CCCNC(=N)N)C(=O)N[C@@H](Cc2c[nH]c3ccccc23)C(=O)N1)C(=O)NCC(=O)N[C@@H](CCCCN)C(=O)O", "note": "[NV1D82 | 243]", "values": [{"measurement": "IC50", "setting": "Nav1.7", "result": 40, "unit": "nM"}, {"measurement": "IC50", "setting": "Nav1.2", "result": 50, "unit": "nM"}]}, {"smiles": "NCC1(CC(=O)O)CCCCC1", "note": "[gabapentin]", "values": [{"measurement": "CFA-induced tactile allodynia", "setting": "[3]; po, 150 mg/kg", "result": "reduced tactile allodynia albeit to a lesser extent than ProTx-II"}]}]}
